Results from ChEMBL document CHEMBL1687887, “Evolution of potent and stable placental-growth-factor-1-targeting CovX-bodies from phage display peptide discovery” (J Med Chem, 2011).
Active and inactive are the calls of the source. The rule behind the calls is not given here. Numbered stars: 1 amine (or outer) side, 2 acyl side, 3 side chain; on linkers, the order of the positions; unused ones are H or OH. Bridge positions count the residues as written; N and C are the ends. Square brackets hold non-standard residues; d marks the D form. Peptide text beside a SMILES is read from it. * marks the point of attachment. X2 = NCCCC[C@H](N[*:1])C(=O)NC(=O)COCC(=O)[*:2]; X1 = O=C(COCC(=O)*)Nc1ccc(CCC(=O)N2CCC2=O)cc1; X3 = O=C(CCc1ccc(N*)cc1)N1CCC1=O; NMeE = CN[C@@H](CCC(=O)O)C(=O)O; Aib = CC(C)(N)C(=O)O

Assays:
Placenta growth factor [1] = molecular target: T1, Placenta growth factor (Homo sapiens, UniProt P49763); assay: Inhibition of human PlGF-1-VEGFR-1 interaction by ELISA
T1 sequence (P49763 whole entry): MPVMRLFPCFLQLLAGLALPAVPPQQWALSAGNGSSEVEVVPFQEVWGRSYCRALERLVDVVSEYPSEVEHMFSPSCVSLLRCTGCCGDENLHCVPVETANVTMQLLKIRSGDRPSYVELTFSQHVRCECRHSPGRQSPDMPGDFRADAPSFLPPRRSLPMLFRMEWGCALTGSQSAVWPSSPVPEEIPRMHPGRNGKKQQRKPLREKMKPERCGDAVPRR

Placenta growth factor [2] = molecular target: T2, Placenta growth factor (Mus musculus, UniProt P49764); assay: (§1) Inhibition of mouse PlGF-VEGFR-1 interaction by ELISA
T2 sequence (P49764 whole entry): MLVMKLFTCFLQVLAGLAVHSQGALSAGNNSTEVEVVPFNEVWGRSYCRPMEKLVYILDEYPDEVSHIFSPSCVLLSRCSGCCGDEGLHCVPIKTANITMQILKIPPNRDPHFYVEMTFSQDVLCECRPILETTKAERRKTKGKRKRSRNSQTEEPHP

Placenta growth factor [3] = molecular target: T1, Placenta growth factor; assay: Binding affinity to human PlGF-1; settings: read-out: Kd
[4] = Stability in Swiss Webster mouse serum assessed as functional compound remaining after 6 hrs; assay type: ADME, cell-free; settings: read-out: Stability
[5] = molecular target: T3, Placenta growth factor (Homo sapiens) (UniProt P49763); assay: Binding affinity to human PlGF-1 by surface plasmon resonance study
T3 sequence (whole entry): T1 sequence (P49763 whole entry)

[6] = molecular target: T3, Placenta growth factor (Homo sapiens); assay: Binding affinity to human PlGF-2 by surface plasmon resonance study
[7] = Stability of the compound in presence of cathepsin B; assay type: ADME
Placenta growth factor [8] = molecular target: T1, Placenta growth factor; assay: Binding affinity to human PlGF-2
[9] = Terminal half life in cynomolgus monkey at 10 mg/kg, iv; assay type: ADME, organism-based, Macaca fascicularis; design: dose 10 mg/kg, route intravenous; settings: in vivo, read-out: beta t1/2 (converted)
[10] = Terminal half life in Swiss Webster mouse at 10 mg/kg, iv; assay type: ADME, organism-based; design: dose 10 mg/kg, route intravenous; settings: in vivo, read-out: beta t1/2 (converted)
Placenta growth factor [11] = molecular target: T2, Placenta growth factor; assay: Binding affinity to mouse PlGF
[12] = molecular target: T4, Placenta growth factor (Mus musculus) (UniProt P49764); assay: as §1
T4 sequence (whole entry): T2 sequence (P49764 whole entry)

Placenta growth factor [13] = molecular target: T1, Placenta growth factor; assay: Inhibition of human PlGF-2-VEGFR-1 interaction by ELISA
[14] = molecular target: T4, Placenta growth factor (Mus musculus); assay: Inhibition of mouse PlGF interaction with human VEGFR-1 by ELISA

| SMILES | IC50 (Placenta growth factor [1]) [nM] | IC50 (Placenta growth factor [2]) [nM] | Kd (Placenta growth factor [3]) [nM] | remaining at 6 h [4] [%] | Kd (Placenta growth factor [8]) [nM] | half-life [10] [h] | Kd (Placenta growth factor [11]) [nM] | other results |
| --- | --- | --- | --- | --- | --- | --- | --- | --- |
| CSCC[C@H](NC(=O)[C@H](CCCCNC(=O)COCC(=O)Nc1ccc(CCC(=O)N2CCC2=O)cc1)NC(=O)[C@H](CCCCNC(C)=O)NC(=O)[C@@H]1CSSC[C@H](NC(=O)[C@@H](NC(=O)[C@H](CC(=O)O)NC(=O)[C@H](Cc2ccccc2)NC(C)=O)C(C)C)C(=O)N[C@@H](CC(N)=O)C(=O)N[C@@H](Cc2c[nH]c3ccccc23)C(=O)N[C@@H](C(C)C)C(=O)N[C@@H]([C@@H](C)O)C(=O)N[C@@H](CC(C)C)C(=O)N2CCC[C@H]2C(=O)N[C@@H](Cc2cnc[nH]2)C(=O)N1)C(N)=O (Ac-FDVCNWVTLPHCK(Ac)K(X1)M-NH2; disulfide 4-12) | 4 | 4 | 5 | < 5 |  |  |  | Activity [5]: Active; Activity [6]: Active |
| CSCC[C@H](NC(=O)[C@@H](NC(=O)[C@H](CCCCN)NC(=O)[C@@H]1CSSC[C@H](NC(=O)[C@@H](NC(=O)[C@H](CC(=O)O)NC(=O)[C@H](Cc2ccccc2)NC(C)=O)C(C)C)C(=O)N[C@@H](CCCCN)C(=O)N[C@@H](Cc2c[nH]c3ccccc23)C(=O)N[C@@H](C(C)C)C(=O)N[C@@H]([C@@H](C)O)C(=O)N[C@@H](CC(C)C)C(=O)N2CCC[C@H]2C(=O)N[C@@H](Cc2cnc[nH]2)C(=O)N1)C(C)C)C(=O)N[C@@H](CCCCN)C(=O)NC(=O)COCC(=O)Nc1ccc(CCC(=O)N2CCC2=O)cc1 (Ac-FDVCKWVTLPHCKVM[X2]-X3; disulfide 4-12) | 2 |  | 4 |  | 100 |  | 400 | inhibition [12]: inactive; IC50 (Placenta growth factor [13]): 150 nM; inhibition [14]: inactive |

Further lines, with some results ahead:

| IC50 (Placenta growth factor [1]) [nM] | IC50 (Placenta growth factor [2]) [nM] | Kd (Placenta growth factor [3]) [nM] | remaining at 6 h [4] [%] | Kd (Placenta growth factor [8]) [nM] | half-life [10] [h] | Kd (Placenta growth factor [11]) [nM] | SMILES | other results |
| --- | --- | --- | --- | --- | --- | --- | --- | --- |
| 0.4 |  | 0.1 |  | 9 | 75 | 70 | CC[C@H](C)[C@@H]1NC(=O)[C@H](Cc2ccc(O)cc2)NC(=O)[C@H](Cc2cnc[nH]2)NC(=O)[C@@H](NC(=O)[C@@H](NC(=O)[C@H](CCC(=O)O)N(C)C(=O)[C@H](Cc2ccccc2)NC(=O)[C@H](C)NC(=O)[C@H](C)NC(=O)[C@H](CC(=O)O)NC(=O)[C@H](C)NC(C)=O)C(C)C)CSSC[C@@H](C(=O)N[C@H](C(=O)N[C@@H](CCCCNC(C)=O)C(=O)NC(C)(C)C(N)=O)[C@@H](C)O)NC(=O)[C@H](Cc2cnc[nH]2)NC(=O)C(C)(C)NC(=O)[C@H](CC(C)C)NC(=O)[C@H](CCCCNC(=O)COCC(=O)Nc2ccc(CCC(=O)N3CCC3=O)cc2)NC1=O (Ac-ADAAF[NMeE]VCHYIK(X1)L[Aib]HCTK(Ac)[Aib]-NH2; disulfide 8-16) | Stability [7]: Stable; half-life [9]: 78 h |
| 1 |  | 0.3 |  |  | 14 |  | CC[C@H](C)[C@@H]1NC(=O)[C@H](Cc2ccc(O)cc2)NC(=O)[C@H](Cc2cnc[nH]2)NC(=O)[C@@H](NC(=O)[C@@H](NC(=O)[C@H](CCC(=O)O)NC(=O)[C@H](Cc2ccccc2)NC(=O)[C@H](C)NC(=O)[C@H](C)NC(=O)[C@H](CC(=O)O)NC(C)=O)C(C)C)CSSC[C@@H](C(=O)N[C@H](C(=O)N[C@@H](CCCN=C(N)N)C(=O)N[C@@H](Cc2ccc(O)cc2)C(N)=O)[C@@H](C)O)NC(=O)[C@H](Cc2cnc[nH]2)NC(=O)[C@@H]2CCCN2C(=O)[C@H](CC(C)C)NC(=O)[C@H](CCCCNC(=O)COCC(=O)Nc2ccc(CCC(=O)N3CCC3=O)cc2)NC1=O (Ac-DAAFEVCHYIK(X1)LPHCTRY-NH2; disulfide 7-15) |  |
|  | 4 | 9 | 20 |  |  |  | CSCC[C@H](NC(=O)[C@@H](NC(=O)[C@H](CCCCNC(C)=O)NC(=O)[C@@H]1CSSC[C@H](NC(=O)[C@@H](NC(=O)[C@H](CC(=O)O)NC(=O)[C@H](Cc2ccccc2)NC(C)=O)C(C)C)C(=O)N[C@@H](CC(N)=O)C(=O)N[C@@H](Cc2c[nH]c3ccccc23)C(=O)N[C@@H](C(C)C)C(=O)N[C@@H](CCCCNC(=O)COCC(=O)Nc2ccc(CCC(=O)N3CCC3=O)cc2)C(=O)N[C@@H](CC(C)C)C(=O)N2CCC[C@H]2C(=O)N[C@@H](Cc2cnc[nH]2)C(=O)N1)C(C)C)C(N)=O (Ac-FDVCNWVK(X1)LPHCK(Ac)VM-NH2; disulfide 4-12) |  |
| 3 |  | 8 |  |  | 24 |  | CC[C@H](C)[C@@H]1NC(=O)[C@H](Cc2ccc(O)cc2)NC(=O)[C@H](Cc2cnc[nH]2)NC(=O)[C@@H](NC(=O)[C@@H](NC(=O)[C@H](CCC(=O)O)N(C)C(=O)[C@H](Cc2ccccc2)NC(=O)[C@H](C)NC(=O)[C@H](C)NC(=O)[C@H](CC(=O)O)NC(=O)[C@H](C)NC(C)=O)C(C)C)CSSC[C@@H](C(=O)N[C@H](C(=O)N[C@@H](CCCNC(=N)N)C(=O)N[C@@H](Cc2ccc(O)cc2)C(N)=O)[C@@H](C)O)NC(=O)[C@H](Cc2cnc[nH]2)NC(=O)[C@@H]2CCCN2C(=O)[C@H](CC(C)C)NC(=O)[C@H](CCCCNC(=O)COCC(=O)Nc2ccc(CCC(=O)N3CCC3=O)cc2)NC1=O (Ac-ADAAF[NMeE]VCHYIK(X1)LPHCTRY-NH2; disulfide 8-16) |  |
